From patent US4148896A, “Antidepressant combination” (E. I. Du Pont de Nemours and Company, priority 1978, dated 1979)
Like-named read-outs stand apart in the source and are kept apart here.

Columns and labels:
[1] = tested on: tryptamine-induced stereotypies and hind limb paralysis; experiment: Tryptamine potentiation test; format: in vivo, mice; conditions: for ED50: Mus musculus, po
Procedure: […] […] (60 Mg/kg of tryptamine alone causes this syndrome but it lasts for less than a minute, usually only a few seconds.) The data were analyzed quantally and ED50's calculated.

[2] = in vivo; conditions: mouse, po
[3] = target: T1, mouse brain MAO (Mus musculus, UniProt Q64133); experiment: biochemical
T1 sequence (Q64133 1-526): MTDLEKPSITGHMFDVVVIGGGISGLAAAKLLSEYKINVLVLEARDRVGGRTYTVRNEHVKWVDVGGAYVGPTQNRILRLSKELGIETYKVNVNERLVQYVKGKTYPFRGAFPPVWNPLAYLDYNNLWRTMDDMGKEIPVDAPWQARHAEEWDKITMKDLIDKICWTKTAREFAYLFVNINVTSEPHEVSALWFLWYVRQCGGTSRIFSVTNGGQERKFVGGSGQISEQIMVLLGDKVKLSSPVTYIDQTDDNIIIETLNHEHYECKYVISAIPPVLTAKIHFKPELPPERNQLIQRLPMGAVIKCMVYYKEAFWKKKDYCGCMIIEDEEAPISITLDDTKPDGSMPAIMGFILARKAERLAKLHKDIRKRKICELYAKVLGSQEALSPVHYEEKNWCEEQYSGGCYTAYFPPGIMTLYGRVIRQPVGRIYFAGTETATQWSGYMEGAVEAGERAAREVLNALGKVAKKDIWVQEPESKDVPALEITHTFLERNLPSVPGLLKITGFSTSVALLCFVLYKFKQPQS

CCc1c(C)[nH]c2c1C(=O)C(CN1CCOCC1)CC2 (centres unmarked) [Molindone, 3-ethyl-6,7-dihydro-2-methyl-5-(morpholinomethyl)indol-4-(5H)-one]
HEAD TWITCH (mice responding) ([1]; 5. mg/kg p.o., 4 Hrs., N=10): 0 | HIND LIMB PARALYSIS (mice responding) ([1]; 5. mg/kg p.o., 4 Hrs., N=10): 1 | ED50, HEAD TWITCH ([1]; 6 Hrs.): 15 mg/kg p.o. | HEAD TWITCH (mice responding) ([1]; 10. mg/kg p.o., 1 Hr., N=10): 1 | HIND LIMB PARALYSIS (mice responding) ([1]; 10. mg/kg p.o., 1 Hr., N=10): 3 | HEAD TWITCH (mice responding) ([1]; 10. mg/kg p.o., 2 Hrs., N=10): 2 | HIND LIMB PARALYSIS (mice responding) ([1]; 10. mg/kg p.o., 2 Hrs., N=10): 8 | HEAD TWITCH (mice responding) ([1]; 10. mg/kg p.o., 4 Hrs., N=20): 1 | HIND LIMB PARALYSIS (mice responding) ([1]; 10. mg/kg p.o., 4 Hrs., N=20): 13 | HEAD TWITCH (mice responding) ([1]; 10. mg/kg p.o., 6 Hrs., N=10): 0 | HIND LIMB PARALYSIS (mice responding) ([1]; 10. mg/kg p.o., 6 Hrs., N=10): 7 | HEAD TWITCH (mice responding) ([1]; 10. mg/kg p.o., 24 Hrs., N=10): 0 | HIND LIMB PARALYSIS (mice responding) ([1]; 10. mg/kg p.o., 24 Hrs., N=10): 0 | HEAD TWITCH (mice responding) ([1]; 20. mg/kg p.o., 1 Hr., N=10): 3 | HIND LIMB PARALYSIS (mice responding) ([1]; 20. mg/kg p.o., 1 Hr., N=10): 9 | HEAD TWITCH (mice responding) ([1]; 20. mg/kg p.o., 2 Hrs., N=10): 3 | HIND LIMB PARALYSIS (mice responding) ([1]; 20. mg/kg p.o., 2 Hrs., N=10): 10 | HEAD TWITCH (mice responding) ([1]; 20. mg/kg p.o., 4 Hrs., N=20): 17 | HIND LIMB PARALYSIS (mice responding) ([1]; 20. mg/kg p.o., 4 Hrs., N=20): 20 | HEAD TWITCH (mice responding) ([1]; 20. mg/kg p.o., 6 Hrs., N=10): 9 | HIND LIMB PARALYSIS (mice responding) ([1]; 20. mg/kg p.o., 6 Hrs., N=10): 10 | HEAD TWITCH (mice responding) ([1]; 20. mg/kg p.o., 24 Hrs., N=10): 0 | HIND LIMB PARALYSIS (mice responding) ([1]; 20. mg/kg p.o., 24 Hrs., N=10): 0 | HEAD TWITCH (mice responding) ([1]; 40. mg/kg p.o., 1 Hr., N=10): 5 | HIND LIMB PARALYSIS (mice responding) ([1]; 40. mg/kg p.o., 1 Hr., N=10): 10 | HEAD TWITCH (mice responding) ([1]; 40. mg/kg p.o., 2 Hrs., N=10): 5 | HIND LIMB PARALYSIS (mice responding) ([1]; 40. mg/kg p.o., 2 Hrs., N=10): 10 | HEAD TWITCH (mice responding) ([1]; 40. mg/kg p.o., 4 Hrs., N=20): 19 | HIND LIMB PARALYSIS (mice responding) ([1]; 40. mg/kg p.o., 4 Hrs., N=20): 20 | HEAD TWITCH (mice responding) ([1]; 40. mg/kg p.o., 6 Hrs., N=10): 9 | HIND LIMB PARALYSIS (mice responding) ([1]; 40. mg/kg p.o., 6 Hrs., N=10): 10 | HEAD TWITCH (mice responding) ([1]; 40. mg/kg p.o., 24 Hrs., N=10): 0 | HIND LIMB PARALYSIS (mice responding) ([1]; 40. mg/kg p.o., 24 Hrs., N=10): 0 | HEAD TWITCH (mice responding) ([1]; 80. mg/kg p.o., 1 Hr., N=10): 0 | HIND LIMB PARALYSIS (mice responding) ([1]; 80. mg/kg p.o., 1 Hr., N=10): 4 | HEAD TWITCH (mice responding) ([1]; 80. mg/kg p.o., 2 Hrs., N=10): 1 | HIND LIMB PARALYSIS (mice responding) ([1]; 80. mg/kg p.o., 2 Hrs., N=10): 4 | HEAD TWITCH (mice responding) ([1]; 80. mg/kg p.o., 4 Hrs., N=10): 3 | HIND LIMB PARALYSIS (mice responding) ([1]; 80. mg/kg p.o., 4 Hrs., N=10): 6 | HEAD TWITCH (mice responding) ([1]; 80. mg/kg p.o., 6 Hrs., N=10): 6 | HIND LIMB PARALYSIS (mice responding) ([1]; 80. mg/kg p.o., 6 Hrs., N=10): 10 | HEAD TWITCH (mice responding) ([1]; 80. mg/kg p.o., 24 Hrs., N=10): 0 | HIND LIMB PARALYSIS (mice responding) ([1]; 80. mg/kg p.o., 24 Hrs., N=10): 0 | HEAD TWITCH (mice responding) ([1]; 160. mg/kg p.o., 1 Hr., N=10): 0 | HIND LIMB PARALYSIS (mice responding) ([1]; 160. mg/kg p.o., 1 Hr., N=10): 1 | HEAD TWITCH (mice responding) ([1]; 160. mg/kg p.o., 2 Hrs., N=10): 0 | HIND LIMB PARALYSIS (mice responding) ([1]; 160. mg/kg p.o., 2 Hrs., N=10): 4 | HEAD TWITCH (mice responding) ([1]; 160. mg/kg p.o., 4 Hrs., N=10): 0 | HIND LIMB PARALYSIS (mice responding) ([1]; 160. mg/kg p.o., 4 Hrs., N=10): 2 | HEAD TWITCH (mice responding) ([1]; 160. mg/kg p.o., 6 Hrs., N=10): 0 | HIND LIMB PARALYSIS (mice responding) ([1]; 160. mg/kg p.o., 6 Hrs., N=10): 4 | HEAD TWITCH (mice responding) ([1]; 160. mg/kg p.o., 24 Hrs., N=10): 2 | HIND LIMB PARALYSIS (mice responding) ([1]; 160. mg/kg p.o., 24 Hrs., N=10): 2 | ED50 ([1]; 1 Hr., read-out: ED50, HEAD TWITCH): 40 mg/kg | ED50 ([1]; 1 Hr., read-out: ED50, HIND LIMB PARALYSIS): 13 mg/kg | ED50 ([1]; 2 Hrs., read-out: ED50, HEAD TWITCH): 40 mg/kg | ED50 ([1]; 2 Hrs., read-out: ED50, HIND LIMB PARALYSIS): < 10 mg/kg | ED50 ([1]; 4 Hrs., read-out: ED50, HEAD TWITCH): 16.7 mg/kg | ED50 ([1]; 4 Hrs., read-out: ED50, HIND LIMB PARALYSIS): 8.6 mg/kg | ED50 ([1]; 6 Hrs., read-out: ED50, HEAD TWITCH): 15 mg/kg | ED50 ([1]; 6 Hrs., read-out: ED50, HIND LIMB PARALYSIS): < 10 mg/kg | ED50 ([1]; 24 Hrs., read-out: ED50, HEAD TWITCH): > 160 mg/kg | ED50 ([1]; 24 Hrs., read-out: ED50, HIND LIMB PARALYSIS): > 160 mg/kg | peak time, head twitch ([1]; oral, tryptamine potentiation): 6 h | peak time, hind limb paralysis ([1]; oral, tryptamine potentiation): 4 h | Effect on the action of tryptamine ([1]; oral, at higher doses the potentiation disappears): potentiates the action of tryptamine in a dose-related manner | LD50 at 24 h [2]: 440 mg/kg | IC50 [3]: > 1 mM
